Assay results from US12528767B2, “HDAC6 inhibitors and uses thereof” (Eikonizo Therapeutics, Inc., priority 2019, dated 2026).
Where two headings read alike, the source gives them in different places.

Key:
Full length Human HDAC6 = biological target: T1, Full length Human HDAC6 (Homo sapiens, UniProt Q9UBN7); conditions: for Selectivity (6 v 8) (fold): ratio of HDAC8 IC50/HDAC6 IC50
T1 sequence (Q9UBN7 1-1215): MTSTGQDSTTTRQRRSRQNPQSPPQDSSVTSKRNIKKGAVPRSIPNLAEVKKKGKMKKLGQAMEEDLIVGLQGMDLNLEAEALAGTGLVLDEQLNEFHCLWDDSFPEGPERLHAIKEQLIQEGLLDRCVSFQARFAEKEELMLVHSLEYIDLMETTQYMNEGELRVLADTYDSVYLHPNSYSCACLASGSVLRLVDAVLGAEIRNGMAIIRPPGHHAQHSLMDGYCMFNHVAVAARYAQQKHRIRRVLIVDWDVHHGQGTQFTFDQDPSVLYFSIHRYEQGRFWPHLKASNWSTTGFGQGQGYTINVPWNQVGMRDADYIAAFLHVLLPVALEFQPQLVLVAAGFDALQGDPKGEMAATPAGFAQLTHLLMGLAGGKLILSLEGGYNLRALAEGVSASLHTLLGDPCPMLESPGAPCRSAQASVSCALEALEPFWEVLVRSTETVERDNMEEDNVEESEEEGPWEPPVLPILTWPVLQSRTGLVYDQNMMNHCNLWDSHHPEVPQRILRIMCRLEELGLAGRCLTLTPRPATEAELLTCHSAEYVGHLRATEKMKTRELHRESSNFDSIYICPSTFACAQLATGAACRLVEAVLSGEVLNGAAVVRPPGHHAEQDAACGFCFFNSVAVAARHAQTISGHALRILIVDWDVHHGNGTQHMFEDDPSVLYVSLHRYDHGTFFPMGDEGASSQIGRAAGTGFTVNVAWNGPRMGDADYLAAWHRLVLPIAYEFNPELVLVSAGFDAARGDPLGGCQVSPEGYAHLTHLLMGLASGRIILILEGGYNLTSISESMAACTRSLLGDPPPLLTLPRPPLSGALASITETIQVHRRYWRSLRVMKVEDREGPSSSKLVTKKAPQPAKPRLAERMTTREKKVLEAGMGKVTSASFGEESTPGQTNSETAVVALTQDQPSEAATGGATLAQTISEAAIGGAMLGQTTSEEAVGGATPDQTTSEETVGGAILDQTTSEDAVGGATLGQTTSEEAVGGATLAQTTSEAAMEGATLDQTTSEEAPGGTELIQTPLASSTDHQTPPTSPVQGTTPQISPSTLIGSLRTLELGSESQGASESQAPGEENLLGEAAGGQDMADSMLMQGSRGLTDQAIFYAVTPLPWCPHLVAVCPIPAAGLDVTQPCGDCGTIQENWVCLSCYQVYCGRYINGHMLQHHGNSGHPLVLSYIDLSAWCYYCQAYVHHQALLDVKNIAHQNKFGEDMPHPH

Human HDAC7 aa 518-end = biological target: T2, Human HDAC7 aa 518-end (Homo sapiens, UniProt Q8WUI4)
T2 sequence (Q8WUI4 518-952 limits assumed): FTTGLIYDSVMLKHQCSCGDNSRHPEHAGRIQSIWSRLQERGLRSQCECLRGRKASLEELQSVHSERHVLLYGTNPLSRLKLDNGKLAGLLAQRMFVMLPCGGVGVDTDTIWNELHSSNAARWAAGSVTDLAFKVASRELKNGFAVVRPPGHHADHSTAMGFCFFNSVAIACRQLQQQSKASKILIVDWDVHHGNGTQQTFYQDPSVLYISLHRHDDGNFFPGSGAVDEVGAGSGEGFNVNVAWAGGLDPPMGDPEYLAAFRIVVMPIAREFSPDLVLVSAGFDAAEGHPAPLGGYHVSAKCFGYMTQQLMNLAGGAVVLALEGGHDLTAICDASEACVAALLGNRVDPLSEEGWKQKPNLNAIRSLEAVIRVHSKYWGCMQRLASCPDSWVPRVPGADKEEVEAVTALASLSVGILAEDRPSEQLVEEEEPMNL

Full length Human HDAC8 = biological target: T3, Full length Human HDAC8 (Homo sapiens, UniProt Q9BY41)
T3 sequence (Q9BY41 1-377): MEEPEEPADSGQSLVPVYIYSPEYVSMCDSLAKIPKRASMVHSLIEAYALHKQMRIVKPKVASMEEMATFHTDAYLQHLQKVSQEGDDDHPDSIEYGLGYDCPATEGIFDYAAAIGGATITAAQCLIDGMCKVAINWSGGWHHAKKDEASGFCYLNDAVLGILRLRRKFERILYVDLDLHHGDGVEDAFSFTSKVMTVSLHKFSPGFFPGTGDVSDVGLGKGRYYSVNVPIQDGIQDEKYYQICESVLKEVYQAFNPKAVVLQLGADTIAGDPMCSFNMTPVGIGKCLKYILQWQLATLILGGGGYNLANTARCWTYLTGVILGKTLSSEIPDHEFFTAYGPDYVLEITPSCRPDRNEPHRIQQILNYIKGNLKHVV

Full length Human HDAC10 = biological target: T4, Full length Human HDAC10 (Homo sapiens, UniProt Q969S8)
T4 sequence (Q969S8 1-669): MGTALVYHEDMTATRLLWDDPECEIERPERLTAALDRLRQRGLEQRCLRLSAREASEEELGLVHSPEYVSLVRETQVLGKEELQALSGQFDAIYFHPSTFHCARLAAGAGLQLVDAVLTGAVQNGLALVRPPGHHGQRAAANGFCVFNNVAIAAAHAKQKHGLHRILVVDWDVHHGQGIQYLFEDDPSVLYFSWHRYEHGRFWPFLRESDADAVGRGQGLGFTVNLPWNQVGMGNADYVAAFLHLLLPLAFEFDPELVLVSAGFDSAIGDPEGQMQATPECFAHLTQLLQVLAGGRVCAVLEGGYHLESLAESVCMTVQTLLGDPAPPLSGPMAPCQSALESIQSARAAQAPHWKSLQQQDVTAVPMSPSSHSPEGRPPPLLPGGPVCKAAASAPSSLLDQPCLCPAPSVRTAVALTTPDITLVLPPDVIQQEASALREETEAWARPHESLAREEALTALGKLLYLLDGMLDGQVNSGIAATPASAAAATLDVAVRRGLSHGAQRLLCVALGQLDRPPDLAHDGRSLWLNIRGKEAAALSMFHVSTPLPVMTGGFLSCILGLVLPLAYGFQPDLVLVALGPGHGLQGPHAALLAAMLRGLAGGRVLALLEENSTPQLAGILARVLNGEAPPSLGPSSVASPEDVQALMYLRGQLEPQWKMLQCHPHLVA

[1] = read-out: In vitro enzymatic IC50, HDAC Paralog 8, Table 2
[2] = read-out: In vitro enzymatic IC50, HDAC Paralog 6, Table 2

Row | SMILES | IC50 (Full length Human HDAC6) [nM] | IC50 (Human HDAC7 aa 518-end) [nM] | IC50 (Full length Human HDAC8) [nM] | IC50 (Full length Human HDAC8; [1]) [nM] | IC50 (Full length Human HDAC10) [nM] | Selectivity (6 v 8) (fold) (Full length Human HDAC6; Table 1, number) | Selectivity (6 v 8) (fold) (Full length Human HDAC6; Table 1, range class) | IC50 (Full length Human HDAC6; [2]) [nM]
1 | O=C(NO)c1cc(F)c2c(c1)CCN([C@@H]1CCC3(CCCCC3)C1)C2 (single isomer, unassigned) [compound 110] | 1 to 100 | 10000 to 100000 | 1000 to 10000 | 1000 to 10000 | 10000 to 100000 |  |  | 
2 | O=C(NO)c1ccc(CN2C3CCC2CC(=NO)C3)c(F)c1 [compound 54] | 1 to 100 | 1000 to 10000 | 100 to 1000 | 100 to 1000 | > 100000 | 38.9 | III (III: >10-100) | 1 to 100
3 | O=C(NO)c1cc(F)c2c(c1)CC1CCCN1C2 (single isomer, unassigned) [compound 120] | 1 to 100 | 1000 to 10000 | 1000 to 10000 | 1000 to 10000 | > 100000 |  |  | 1 to 100
4 | O=C(NO)c1cc(F)c2c(c1)CCN1CCCC[C@@H]21 (single isomer, unassigned) [compound 139] | 1 to 100 | 1000 to 10000 | 1000 to 10000 |  | 10000 to 100000 |  |  | 
5 | CC1(C)C[C@@H]2Cc3c(F)cc(C(=O)NO)cc3CN2C1 (single isomer, unassigned) [compound 127] | 1 to 100 | 1000 to 10000 | 1000 to 10000 |  | > 100000 |  |  | 
6 | O=C(NO)c1cc(F)c2c(c1)C[C@@H]1CC3(CCCCC3)CN1C2 (single isomer, unassigned) [compound 136] | 1 to 100 | 1000 to 10000 | 1000 to 10000 |  | > 100000 |  |  | 
7 | CN1CC2(CCCCC2)CC[C@@H]1Cc1cc(F)cc(C(=O)NO)c1 (single isomer, unassigned) [compound 170] | 1 to 100 | 1000 to 10000 | 1000 to 10000 | 1000 to 10000 | 10000 to 100000 | 68 | III (III: >10-100) | 1 to 100
8 | O=C(NO)c1ccc(CN2C3CCCC2CCC3)c(F)c1 [compound 60] | 100 to 1000 | 1000 to 10000 | 1000 to 10000 | 1000 to 10000 | > 100000 | 5.8 | II (II: >1-10) | 100 to 1000
9 | O=C(NO)c1ccc(CN2C3CCCC2CC3)c(F)c1 [compound 61] | 100 to 1000 | 1000 to 10000 | 1000 to 10000 | 1000 to 10000 | > 100000 | 9.6 | II (II: >1-10) | 100 to 1000
10 | O=C(NO)c1cc(F)c2c(c1)CCN(C1COC1)C2 [compound 24] | 1 to 100 | 1000 to 10000 | 1000 to 10000 | 1000 to 10000 | > 100000 |  |  | 1 to 100
11 | CC(C)(C)CN1CCc2cc(C(=O)NO)cc(F)c2C1 [compound 20] | 1 to 100 | > 100000 | 10000 to 100000 | 10000 to 100000 | 10000 to 100000 |  |  | 1 to 100
12 | O=C(NO)c1ccc(CN2CCC3(CCCCC3)CC2)c(F)c1 [compound 74] | 100 to 1000 | 1000 to 10000 | 1000 to 10000 | 1000 to 10000 | 10000 to 100000 | 24.9 | III (III: >10-100) | 100 to 1000
13 | O=C(NO)c1ccc(CN2CC3(COC3)C2)c(F)c1 [compound 72] | 1 to 100 |  | 100 to 1000 |  |  | 44.8 | III (III: >10-100) | 
14 | O=C(NO)c1ccc2c(c1)Cn1cccc1-2 [compound 166, N-hydroxy-5H-pyrrolo[2,1-a]isoindole-7-carboxamide] | 100 to 1000 |  | 1000 to 10000 |  |  | 14 | III (III: >10-100) | 
15 | O=C(NO)c1ccc(CN2CC3(CCOC3)C2)c(F)c1 [compound 68] | 1 to 100 |  | 1000 to 10000 |  |  | 27.9 | III (III: >10-100) | 
16 | O=C(NO)c1cc(F)c(CN2C3CCC2COC3)cc1F [compound 50] | 1 to 100 |  | 1000 to 10000 |  |  | 45.5 | III (III: >10-100) | 
